US3993771A (priority 1974, dated 1976)
In brackets after ≈: the same amount, converted by molar mass. Read-outs that look alike come from different tables or passages of the source.

Assays:
[1] = system: Pyricularia oryzae; type: in vivo; details: preventive
[2] = system: Pyricularia oryzae; type: in vivo
[3] = system: Pyricularia oryzae; assay: microbe, parasite or virus in culture; type: cell-based; details: for Diameter of mycelium (symbol) / Diameter of mycelium: 27° C., 2 weeks; for Diameter of mycelium: untreated 63.5 m/m; for MIC: Pyricularia oryzae, 336 h, read-out: MIC (minimum inhibitory concentration on mycelial growth)
[4] = system: rice plants (var.: Kinki No. 33); details: preventive test
[5] = system: rice plants (var.: Kinki No. 33)
[6] = concentration of active ingredient 100 ppm
[7] = curative, concentration of active ingredient 200 ppm
[8] = concentration of active ingredient 500 ppm
[9] = curative, concentration of active ingredient 500 ppm
[10] = curative, concentration of active ingredient 20 ppm

| SMILES | Disease control [1, 6] | Disease severity [1, 6] | Disease control [2, 7] | Disease severity [2, 7] | Diameter of mycelium ([3]; 10 ppm) | Diameter of mycelium ([3]; 50 ppm) | Diameter of mycelium ([3]; 250 ppm) | MIC [3] | Phytotoxicity ([4]; 100 ppm) | Diameter of mycelium ([3]; 2 ppm) | further results |
| --- | --- | --- | --- | --- | --- | --- | --- | --- | --- | --- | --- |
| CCC1CC(=Cc2ccccc2Cl)C(=O)O1 (stereo not drawn) [Compound 9, α-(o-chlorobenzylidene)-γ-ethyl-γ-butyrolactone] | 99% | 1.3% | 99% | 1.3% | 0 m/m | 0 m/m | 0 m/m | ~2 µg/mL (≈ 8.45 µM) | no | – | Diameter of mycelium (symbol) ([3]; 2 ppm): ± |
| Cc1ccccc1C=C1CC(C)OC1=O (stereo not drawn) [Compound 5] | 99% | 1.3% | 100% | 0% | 0 m/m | 0 m/m | 0 m/m | ~2 µg/mL (≈ 9.89 µM) | no | – | Diameter of mycelium (symbol) ([3]; 2 ppm): ± |
| O=C1OCCC1=Cc1ccc(Cl)cc1 [Control (vi), reference compound] | – | – | – | – | 51.5 m/m | 34.5 m/m | 3.0 m/m | 250 µg/mL (≈ 1200 µM) | – | 66.0 m/m | Disease control [1, 8]: 0%; Disease severity [1, 8]: 100.0%; Disease control [2, 9]: 0%; Disease severity [2, 9]: 100.0%; Phytotoxicity ([4]; 500 ppm): no |
| CC1CC(=Cc2ccccc2C(C)C)C(=O)O1 (stereo not drawn) [Compound 13] | 100% | 0% | 99% | 1.3% | 0 m/m | 0 m/m | 0 m/m | ~2 µg/mL (≈ 8.68 µM) | no | – | Diameter of mycelium (symbol) ([3]; 2 ppm): ± |
| Cc1cccc(C)c1C=C1CCOC1=O [Compound 4] | 99% | 1.3% | – | – | 0 m/m | 0 m/m | 0 m/m | < 2 µg/mL | no | 0 m/m | – |
| CCc1ccccc1C=C1CC(C)OC1=O (stereo not drawn) [Compound 14] | 100% | 0% | 100% | 0% | 0 m/m | 0 m/m | 0 m/m | ~2 µg/mL (≈ 9.25 µM) | no | – | Diameter of mycelium (symbol) ([3]; 2 ppm): ± |
| CC(C)(C)C1CC(=Cc2ccccc2Cl)C(=O)O1 (stereo not drawn) [Compound 10] | 99% | 1.3% | – | – | 0 m/m | 0 m/m | 0 m/m | ~2 µg/mL (≈ 7.55 µM) | no | – | Diameter of mycelium (symbol) ([3]; 2 ppm): ± |
| O=C1OCCC1=Cc1ccccc1 [Control (ii), reference compound] | – | – | – | – | 49.0 m/m | 35.5 m/m | – | ~250 µg/mL (≈ 1440 µM) | – | 68.5 m/m | Disease control [1, 8]: 7%; Disease severity [1, 8]: 93.8%; Disease control [2, 9]: 0%; Disease severity [2, 9]: 97.5%; Diameter of mycelium (symbol) ([3]; 250 ppm): ±; Phytotoxicity ([4]; 500 ppm): no |
| CCOP(=O)(Sc1ccccc1)Sc1ccccc1 [Commercial fungicide C, O-ethyl-S,S-diphenyl-phosphorodithiolate, reference compound] | – | – | – | – | – | – | – | – | – | – | Disease control ([2]; in vivo): 92%; Disease severity ([2]; in vivo): 7.5%; Phytotoxicity ([5]; in vivo): no |
| CC(C)OP(=O)(OC(C)C)SCc1ccccc1 [Commercial fungicide A, 0,0-diisopropyl-S-benzylphosphorothioate, reference compound] | 92% | 7.5% | – | – | – | – | – | – | no | – | – |
| O=C1OCCC1=Cc1ccccc1O [Control (iii), reference compound] | – | – | – | – | 55.0 m/m | 40.0 m/m | 11.0 m/m | > 250 µg/mL | – | 65.0 m/m | Disease control [1, 8]: 10%; Disease severity [1, 8]: 90.0%; Disease control [2, 9]: 0%; Disease severity [2, 9]: 97.5%; Phytotoxicity ([4]; 500 ppm): no |
| CC1CC(=Cc2ccccc2Br)C(=O)O1 (stereo not drawn) [Compound 7] | 100% | 0% | 100% | 0% | 0 m/m | 0 m/m | 0 m/m | < 2 µg/mL | no | 0 m/m | – |
| CC1CC(=Cc2c(F)cccc2Cl)C(=O)O1 (stereo not drawn) [Compound 3, α-(2-chloro-6-fluorobenzylidene)-γ-valerolactone] | 100% | 0% | 100% | 0% | 0 m/m | 0 m/m | 0 m/m | < 2 µg/mL | no | 0 m/m | – |
| Cc1ccccc1C=C1CC(C)(C)OC1=O [Compound 12, α-(o-methylbenzylidene)-γ-dimethyl-γ-butyrolactone] | 97% | 2.5% | – | – | 0 m/m | 0 m/m | 0 m/m | 2 µg/mL (≈ 9.25 µM) | no | 2.0 m/m | – |
| COc1ccccc1C=C1CCOC1=O [Control (iv), reference compound] | – | – | – | – | 48.5 m/m | 31.5 m/m | – | ~250 µg/mL (≈ 1220 µM) | – | 63.0 m/m | Disease control [1, 8]: 2%; Disease severity [1, 8]: 97.5%; Disease control [2, 9]: 0%; Disease severity [2, 9]: 100.0%; Diameter of mycelium (symbol) ([3]; 250 ppm): ±; Phytotoxicity ([4]; 500 ppm): no; Phytotoxicity ([5]; curative test, 500 ppm): no |
| O=C1OCCC1=Cc1c(Cl)cccc1Cl [Compound 2, α-(2,6-dichlorobenzylidene)-γ-butyrolactone] | 100% | 0% | – | – | 0 m/m | 0 m/m | 0 m/m | < 2 µg/mL | no | 0 m/m | – |
| CC1(C)CC(=Cc2ccccc2Cl)C(=O)O1 [Compound 11] | 99% | 1.3% | – | – | 0 m/m | 0 m/m | 0 m/m | ~2 µg/mL (≈ 8.45 µM) | no | – | Diameter of mycelium (symbol) ([3]; 2 ppm): ± |
| O=C1OCCC1=Cc1ccc([N+](=O)[O-])cc1 [Control (v), reference compound] | – | – | – | – | 58.5 m/m | 43.0 m/m | 30.5 m/m | > 250 µg/mL | – | 69.5 m/m | Disease control [1, 8]: 0%; Disease severity [1, 8]: 100.0%; Phytotoxicity ([4]; 500 ppm): no |
| CC1CC(=Cc2ccccc2)C(=O)O1 (stereo not drawn) [Control (ix), reference compound] | – | – | – | – | – | – | – | – | – | – | Disease control [1, 8]: 10%; Disease severity [1, 8]: 90.0%; Phytotoxicity ([4]; 500 ppm): no |
| C=C1CCOC1=O [Control (i), reference compound] | – | – | – | – | – | – | – | – | – | – | Disease control [1, 8]: 0%; Disease severity [1, 8]: 100%; Phytotoxicity ([4]; 500 ppm): no |
| C[C@H]1O[C@H](OC2[C@@H](O)[C@@H](O)C(O)[C@H](O)[C@H]2O)[C@@H](N)C[C@@H]1N=C(N)C(=O)O.Cl (stereo partly drawn) [Commercial fungicide B, Kasugamycin hydrochloride, reference compound] | – | – | – | – | – | – | – | – | – | – | Disease control [2, 10]: 82%; Disease severity [2, 10]: 17.5% |
| CC1CC(=Cc2ccccc2Cl)C(=O)O1 (stereo not drawn) [Compound 6, α-(o-chlorobenzylidene)-γ-valerolactone] | 100% | 0% | 100% | 0% | 0 m/m | 0 m/m | 0 m/m | < 2 µg/mL | no | 0 m/m | – |
| CC1CC(=Cc2c(Cl)cccc2Cl)C(=O)O1 (stereo not drawn) [Compound 8] | 100% | 0% | – | – | 0 m/m | 0 m/m | 0 m/m | < 2 µg/mL | no | 0 m/m | – |
| Cc1ccccc1C=C1CCOC1=O [Compound 1] | 100% | 0% | 99% | 1.3% | 0 m/m | 0 m/m | 0 m/m | < 2 µg/mL | no | 0 m/m | Phytotoxicity ([5]; curative test, 200 ppm): no |
